Publication PMC11936910, “Population pharmacokinetics of polymyxin B in critically ill patients with carbapenem-resistant organisms infections: insights from steady-state trough and peak plasma concentration” (Frontiers in Pharmacology, 2025)
Where two headings read alike, the source gives them in different places. Bridge positions count the residues as written; N and C are the ends. Square brackets hold non-standard residues; d marks the D form. Peptide text beside a SMILES is read from it. * marks the point of attachment. X1 = CC[C@H](C)CCCCC(=O)*; Dab = NCC[C@H](N)C(=O)O

Tests used:
[1] = Steady-state trough and peak plasma concentrations of PMB (UPLC-MS/MS) and AUCss,24h estimation; assay type: in vivo, critically ill patients; conditions: for Cmax / AUC(0-t): human, plasma, iv; for Cmax: sample immediately after infusion, UPLC-MS/MS, read-out: Cpeak, ss; for AUC(0-t): two-point method (Ctrough,ss and Cpeak,ss, first-order elimination equation), mean ± SD, SD, read-out: Equation-based AUCss,24h
Method: A single-center prospective study was conducted in the intensive care unit (ICU) of the First Affiliated Hospital of Army Medical University from August 2021 to July 2024. Inclusion criteria: (1) patients aged ≥18 years; (2) patients receiving intravenous PMB for CRO infections confirmed by pathogen testing; (3) patients receiving at least four consecutive doses of intravenous PMB, or a loading dose followed by at least three consecutive doses. Exclusion criteria: (1) patients with missing clinical data; (2) patients hospitalized for fewer than 7 days; (3) patients receiving any form of renal replacement therapy during PMB treatment; (4) pregnant women. The research protocol was approved by the Ethics Committee of our hospital (No. (A) KY2021064).
After at least 48 h of treatment, two blood samples were collected: one immediately before the infusion and the other immediately after. The exact times of blood sampling and infusion were recorded for each patient. Plasma was separated by low-temperature, low-speed centrifugation and stored at −70°C until analysis.
PMB concentrations were analyzed using a validated ultra-performance liquid chromatography-tandem mass spectrometry (UPLC-MS/MS) method. Briefly, using polymyxin E2 as the internal standard, the assay was linear over 0.2–20.0 mg·L^-1 and 0.05–5 mg·L^-1 (r > 0.995) for PMB1 and PMB2 respectively. […] PMB concentration was calculated as follows: total concentration of PMB = [PMB1 concentration/PMB1 molecular + PMB2 concentration/PMB2 molecular]*total PMB molecular ([Liu et al., 2023]).
Data analysis was performed SPSS (version 26.0, IBM, United States) and GraphPad Prism (version 8.3.0, CA, United States). Variables with a normal distribution were expressed as mean ± standard deviation (SD), while non-normally distributed variables were reported as median (interquartile range, IQR). Categorical data were presented as percentages (%). Comparisons between two groups were conducted using the Mann-Whitney U test for non-normally distributed data and the independent t-test for normally distributed data. The estimation of AUCss,24h used the two-point method was presented in Equations 3–5 ([Liu et al., 2023]), while the estimation of AUCss,24h based on the PopPK model was obtained by dividing the total 24-hour drug dose by the individual clearance. Bland-Altman analysis was performed to evaluate the consistency of AUCss,24h estimates obtained by the two methods. AUCss,24h values were categorized as “within the therapeutic window” (50–100 mg·h·L^-1), and McNemar’s test and Kappa test were applied to assess the consistency of AUCss,24h classifications. ke=lnCpeak,ss−lnCtrough,ss/τ−Infusion (3) Csoi′ =Cpeak,ss/e^−ke⋅Infusion (4) AUCss,24h=Csoi^′−Ctrough,ss/ke×n (5) Infusion time; τ: dosing interval; Csoi' is the exploratory concentration at the start of dosing based on the one-compartment linear elimination pharmacokinetic assumption; ke: elimination rate constant; n is the number of doses within 24 h.

[2] = Population pharmacokinetic (PopPK) model of PMB, NONMEM, one-compartment; assay type: in vivo, critically ill patients
Excerpt: The PopPK model was developed using nonlinear mixed-effects modeling software: NONMEM (version 7.5.1, ICON plc, United States), Pirana (version 23.1.2, Certara L.P., United States), and PsN (version 5.3.0, https://uupharmacometrics.github.io/PsN/), with the first-order conditional estimation method including interaction (FOCE-I). The base model was selected based on goodness-of-fit (GOF) diagnostic plots, relative standard error (RSE) of parameters, and the objective function value (OFV). Spearman correlation was used to evaluate the relationships between covariates and individual empirical Bayesian estimates (EBEs) of PK parameters before covariate selection. A decrease in OFV >3.84 (P < 0.05, χ^2, df = 1) for forward addition and an increase >6.63 (P < 0.01, χ^2, df = 1) for backward elimination were the criteria for covariate inclusion. GOF plots were used to assess the model. To assess the stability of the final model and the precision of the PK parameters, a bootstrap method with 1,000 resampling iterations was performed. The final model was then subjected to 1,000 simulations for visual predictive checks (VPC) to evaluate the model’s predictive ability and accuracy. The accuracy and predictive performance of the model were further assessed using normalized prediction distribution errors (NPDE) plots. Statistical validation of the model was conducted using the t-test, Fisher’s test, Shapiro-Wilk test, and the Global test.
The patients were divided into a modeling group and a validation group based on the chronological order of enrollment and in accordance with the inclusion and exclusion criteria. External validation of the final model was performed using the validation group data. The mean prediction error (MPE), mean absolute prediction error (MAPE) (Equations 1, 2), F20 (20% of the absolute value of the prediction error), and F30 were calculated by comparing the predicted values with the observed values. Model performance was considered acceptable if MPE% ≤ ±20%, MAPE% ≤ 30%, F20 ≥ 35%, and F30 ≥ 50% ([Mao et al., 2018]). MPE%=1/N∑i=1Npredi−obsi/obsi×100 (1) MAPE%=1/N∑i=1Npredi−obsi/obsi×100 (2) predi denotes the i-th predicted value, and obsi its corresponding observed value.
A one-compartment model with first-order elimination best fit the population data of PMB in critically ill patients. Inter-individual variability was described using an exponential random effects model, while residual variability was described using both proportional and additive error models.

CRO strains = test: MICs of PMB against CRO strains; assay type: cell-based, carbapenem-resistant organisms
[3] = cited from earlier work
Excerpt: In contrast, the lower CL observed in previous studies by Li et al. (1.18 L·h^-1) and Yu et al. (1.59 L·h^-1) may reflect differences in renal function and patient characteristics. Our study reported a value of 18 L, which ...

[4] = cited from earlier work; remark: listed apart in the source
Excerpt: The association between PMB pharmacokinetics and CrCL is still debated.

[5] = bootstrap median, 1,000 resampling iterations
[6] = CRO-infected patients, covariate TBW, ref Manchandani et al., 2018
[7] = CRO-infected patients, ref Kubin et al., 2018
[8] = Critically ill patients, covariate CrCL, ref Yu et al., 2020
[9] = Cystic fibrosis patients, covariate TBW, ref Crass et al., 2021
[10] = Kidney transplant patients, covariate CrCL, ref Li et al., 2021

CC[C@H](C)CCCCC(=O)N[C@@H](CCN)C(=O)N[C@H](C(=O)N[C@@H](CCN)C(=O)N[C@H]1CCNC(=O)[C@H]([C@@H](C)O)NC(=O)[C@H](CCN)NC(=O)[C@H](CCN)NC(=O)[C@H](CC(C)C)NC(=O)[C@@H](Cc2ccccc2)NC(=O)[C@H](CCN)NC1=O)[C@@H](C)O [PMB, polymyxin B] (X1-[Dab]T[Dab][Dab][Dab][dF]L[Dab][Dab]T; lactam 4-C)
AUCss,24h within the range of 50–100, share of values ([1]; estimated by the PPK model, 55/106 values (modeling and validation group)): 51.89%
AUCss,24h within the range of 50–100, share of values ([1]; estimated using the two-point method, 49/106 values): 46.23%
Cmax ([1]; modeling set (n = 80), median (IQR)): 5730 ng/mL
AUC(0-t) ([1]; modeling set): 102000 ± 57900 ng·h/mL
Cmax ([1]; validation set (n = 15), median (IQR)): 4340 ng/mL
AUC(0-t) ([1]; validation set): 90500 ± 43400 ng·h/mL
Model-based AUCss,24h ([1]; modeling set, total 24-hour dose divided by individual clearance from PopPK model, median (IQR)): 74.07 (55.81–94.07) mg·h/L
CL [2, 5]: 2.02 L/h
V [2, 5]: 17.98 L
V ([2]; final model estimate, modeling group n = 80): 18 L
CL ([2]; final model estimate, modeling group n = 80, 184 samples): 2.03 L/h
Share with MIC of PMB 16 mg·L^-1 (CRO strains; modeling group, 3/80): 3.75%
Share with MIC of PMB 2 mg L^-1 (CRO strains; modeling group, 8/80): 10%
Share with MIC of PMB 1 mg·L^-1 (CRO strains; modeling group, 11/80): 13.75%
Share with MIC of PMB 2 mg·L^-1 (CRO strains; validation group, 2/15): 13.33%
Share with MIC of PMB 1 mg·L^-1 (CRO strains; validation group, 4/15): 26.67%
Share with MIC of PMB ≤0.5 mg·L^-1 (CRO strains; validation group, 9/15): 60%
CL [3, 6]: 2.50 L/h
Vd [3, 6]: 34.30 L
CL [3, 7]: 2.37 L/h
Vd [3, 7]: 34.40 L
CL [3, 8]: 1.59 L/h
Vd [3, 8]: 20.50 L
CL [3, 9]: 2.09 L/h
Vd [3, 9]: 12.70 L
CL [3, 10]: 1.18 L/h
Vd [3, 10]: 12.90 L
Urinary recovery ([4]; 17 patients, ref Sandri et al., 2013b): 0.98% to 17.40
Urinary recovery rate ([4]; four patients, ref Yu et al., 2020): 23.56%
